From patent publication US20230183193A1, “4-DIFLUOROMETHYL BENZOYL AMIDES WITH HERBICIDAL ACTION” (BAYER CROPSCIENCE AKTIENGESELLSCHAFT, priority 2017, published 2023)

Tests used:
Type in all cases: in vivo
Abutilon theophrasti [1] = test: Pre-emergence herbicidal action, ABUTH; details: dosage 320 g/ha, scored visually after 3 weeks vs untreated controls
From the text: (§1) 1. Pre-Emergence Herbicidal Action Against Harmful Plants Seeds of monocotyledonous and dicotyledonous weed plants and crop plants are laid out in sandy loam soil in wood-fiber pots and covered with soil. The compounds of the invention, formulated in the form of wettable powders (WP) or as emulsion concentrates (EC), are then applied to the surface of the covering soil in the form of an aqueous suspension or emulsion at a water application rate equating to […], with addition of 0.2% wetting agent. After the treatment, the pots are placed in a greenhouse and kept under good growth conditions for the trial plants. The damage to the test plants is scored visually after a test period of 3 weeks by comparison with untreated controls (herbicidal activity in percent (%): 100% activity=the plants have died, 0% activity=like control plants).
(§2) For comparison, the herbicidal activity of numerous compounds according to the invention was tested with the structurally closest compounds known from the documents WO 2011/035874, WO 2012/028579 and WO 2012/126932, by the pre- and post-emergence method.

Amaranthus retroflexus [2] = test: Pre-emergence herbicidal action, AMARE; details: dosage 320 g/ha, scored visually after 3 weeks vs untreated controls
From the text: as §1, §2

Matricaria inodora = test: Pre-emergence herbicidal action, MATIN; details: dosage 320 g/ha, scored visually after 3 weeks vs untreated controls
From the text: as §1, §2

Stellaria media [3] = test: Pre-emergence herbicidal action, STEME; details: dosage 320 g/ha, scored visually after 3 weeks vs untreated controls
From the text: as §1, §2

Viola tricolor [4] = test: Pre-emergence herbicidal action, VIOTR; details: dosage 320 g/ha, scored visually after 3 weeks vs untreated controls
From the text: as §1, §2

Abutilon theophrasti [5] = test: Post-emergence herbicidal action, ABUTH; details: 80 g/ha, Table D
Experimental: (§3) Seeds of monocotyledonous and dicotyledonous weed and crop plants are laid out in sandy loam soil in wood-fiber pots, covered with soil and cultivated in a greenhouse under good growth conditions. 2 to 3 weeks after sowing, the test plants are treated at the one-leaf stage. The compounds of the invention, formulated in the form of wettable powders (WP) or as emulsion concentrates (EC), are then sprayed onto the green parts of the plants in the form of an aqueous suspension or emulsion at a water application rate equating to […], with addition of 0.2% wetting agent. After the test plants have been left to stand in the greenhouse under optimal growth conditions for about 3 weeks, the action of the preparations is assessed visually in comparison to untreated controls (herbicidal action in percent (%): 100% activity=the plants have died, 0% activity=like control plants). […] At the same time, inventive compounds leave Gramineae crops such as barley, wheat, rye, millet/sorghum, corn or rice virtually undamaged when applied post-emergence, even at high active compound dosages. In addition, some substances are also harmless to dicotyledonous crops such as soya, cotton, oilseed rape, sugar beet or potatoes. Some of the compounds according to the invention have high selectivity and are therefore suitable for controlling unwanted vegetation in agricultural crops by the post-emergence method. The data of Tables C and D below illustrate, in an exemplary manner, the […] herbicidal action of the compounds according to the invention, the herbicidal activity being stated in percent.
as §2

Amaranthus retroflexus [6] = test: Post-emergence herbicidal action, AMARE; details: 80 g/ha, Table D
Experimental: as §3, §2

Setaria viridis [7] = test: Post-emergence herbicidal action, SETVI; details: 80 g/ha, Table C
Experimental: as §3, §2

Stellaria media [8] = test: Post-emergence herbicidal action, STEME; details: 80 g/ha, Table D
Experimental: as §3, §2

Viola tricolor [9] = test: Post-emergence herbicidal action, VIOTR; details: 80 g/ha, Table D
Experimental: as §3, §2

ECHCG = test: Post-emergence herbicidal action, ECHCG; details: 80 g/ha, Table C
Experimental: as §3

Setaria viridis [10] = test: Pre-emergence herbicidal action, SETVI; details: dosage 320 g/ha, scored visually after 3 weeks vs untreated controls
From the text: as §1, §2

Pharbitis purpureum = test: Post-emergence herbicidal action, PHBPU; details: 80 g/ha, Table D
Experimental: as §3, §2

Avena fatua = test: Pre-emergence herbicidal action, AVEFA; details: dosage 320 g/ha, scored visually after 3 weeks vs untreated controls
From the text: as §1, §2

Cyperus serotinus = test: Pre-emergence herbicidal action, CYPES; details: dosage 320 g/ha, scored visually after 3 weeks vs untreated controls
From the text: as §1, §2

Alopecurus myosuroides = test: Pre-emergence herbicidal action, ALOMY; details: dosage 320 g/ha, scored visually after 3 weeks vs untreated controls
From the text: as §1, §2

Row | SMILES | herbicidal activity ABUTH (Abutilon theophrasti [1]) [%] | herbicidal activity AMARE (Amaranthus retroflexus [2]) [%] | herbicidal activity MATIN (Matricaria inodora) [%] | Herbicidal activity STEME (Stellaria media [3]) [%] | herbicidal activity VIOTR (Viola tricolor [4]) [%] | herbicidal activity ABUTH (Abutilon theophrasti [5]) [%] | herbicidal activity AMARE (Amaranthus retroflexus [6]) [%] | herbicidal activity SETVI (Setaria viridis [7]) [%] | Herbicidal activity STEME (Stellaria media [8]) [%] | herbicidal activity VIOTR (Viola tricolor [9]) [%] | Herbicidal activity ECHCG (ECHCG) [%] | herbicidal activity SETVI (Setaria viridis [10]) [%] | Herbicidal activity PHBPU (Pharbitis purpureum) [%] | herbicidal activity AVEFA (Avena fatua) [%] | herbicidal activity CYPES (Cyperus serotinus) [%] | herbicidal activity ALOMY (Alopecurus myosuroides) [%]
1 | CSc1c(C(F)F)ccc(C(=O)Nc2ncnn2C)c1F [Example 4-37] | 100 | 100 | 100 | 100 | 90 | 80 | 100 | 90 | 80 | 80 | 80 | – | – | – | – | –
2 | Cn1nnnc1NC(=O)c1ccc(C(F)F)c(S(C)(=O)=O)c1I [Example 1-75] | 90 | 90 | 90 | 100 | 90 | – | 90 | – | 100 | – | – | 100 | 80 | – | – | –
3 | CCSc1c(C(F)F)ccc(C(=O)Nc2nonc2Cl)c1C [Example 6-4] | 90 | 100 | 90 | 90 | 100 | 90 | – | 100 | 90 | 100 | 100 | 100 | 80 | 90 | – | –
4 | CCS(=O)(=O)c1c(C(F)F)ccc(C(=O)Nc2ncnn2C)c1C1CC1 [Example 4-30] | 100 | 90 | 100 | 90 | 90 | 80 | – | – | 90 | 80 | – | – | 90 | – | 80 | –
5 | Cn1ncnc1NC(=O)c1ccc(C(F)F)c([S+](C)[O-])c1F (stereo not drawn) [Example 4-38] | 90 | – | – | – | – | 90 | 90 | – | 90 | 100 | 80 | – | 90 | – | – | –
6 | CC[S+]([O-])c1c(C(F)F)ccc(C(=O)Nc2ncnn2C)c1C1CC1 (stereo not drawn) [Example 4-29] | 100 | 90 | 90 | 90 | 100 | 80 | 80 | – | 90 | 90 | – | – | 90 | – | – | –
7 | Cn1ncnc1NC(=O)c1ccc(C(F)F)c(S(C)(=O)=O)c1I [Example 4-75] | 100 | 100 | 100 | 100 | 90 | – | 100 | – | 90 | 80 | – | 90 | 80 | – | 80 | –
8 | CC[S+]([O-])c1c(C(F)F)ccc(C(=O)Nc2nonc2Cl)c1C (stereo not drawn) [Example 6-5] | 100 | 100 | 90 | 90 | 100 | 80 | – | 90 | 90 | 100 | 100 | 100 | – | 90 | – | 90
9 | CCSc1c(C(F)F)ccc(C(=O)Nc2ncnn2C)c1C1CC1 [Example 4-28] | 100 | 90 | 90 | 90 | 100 | – | 80 | – | 100 | 80 | – | – | 90 | – | – | –
10 | Cn1ncnc1NC(=O)c1ccc(C(F)F)c(S(C)(=O)=O)c1F [Example 4-39] | 100 | 100 | 90 | 100 | 100 | 90 | 90 | – | 100 | 90 | – | 100 | 90 | – | – | –
11 | CSc1c(C(F)F)ccc(C(=O)Nc2ncnn2C)c1C1CC1 [Example 4-25] | 90 | 90 | 90 | 90 | 100 | – | 90 | – | 100 | 90 | – | – | 80 | – | – | –
12 | CCSc1c(C(F)F)ccc(C(=O)Nc2ncnn2C)c1F [Example 4-40] | 100 | 100 | 100 | 100 | 100 | 80 | 100 | 90 | 90 | 80 | 90 | 80 | – | – | 100 | –
